The results in this text go back to the NIST ThermoML archive (doi:10.1016/j.jct.2012.02.004).

The data set in a line: xn = mol fraction of the nth substance listed. The settings on record: 298.15 K, 101 kPa, Liquid, Taylor dispersion method.

On to `C[N+](C)(C)CCCCCCCCCCCC[N+](C)(C)C.[Br-].[Br-]` + O, for which the binary diffusion coefficient came out at 1.01e-09 m2/s (x1 = 0); 9.72e-10 m2/s (x1 = 0.00119); 9.45e-10 m2/s (x1 = 0.00475); 9.11e-10 m2/s (x1 = 0.0095); 8.7e-10 m2/s (x1 = 0.019); 8.05e-10 m2/s (x1 = 0.038).

For the compound `C[N+](C)(C)CCCCCCCCCC[N+](C)(C)C.[Br-].[Br-]` [decamethonium bromide] + O, the binary diffusion coefficient is, setting by setting: (x1 = 0) 1.06e-09 m2/s; (x1 = 0.00119) 9.9e-10 m2/s; (x1 = 0.00475) 9.55e-10 m2/s; (x1 = 0.0095) 9.04e-10 m2/s; (x1 = 0.019) 8.61e-10 m2/s; (x1 = 0.038) 8.43e-10 m2/s.
